Entries after “also recorded” stand apart in the source; their conditions may differ.
target: T1, AChE (Homo sapiens, UniProt P22303); assay: biochemical; format: biochemical; conditions: not given
T1 construct: purchased Sigma-Aldrich Chemical Co
From the text: The kit is based on an improved Ellman method, whereby thiocholine produced from AChE activity forms a yellow color with 5,5′-dithiobis(2-nitrobenzoic acid), and the intensity the color (412 nm) is proportional to the enzyme activity.

T1 sequence (P22303 32-614): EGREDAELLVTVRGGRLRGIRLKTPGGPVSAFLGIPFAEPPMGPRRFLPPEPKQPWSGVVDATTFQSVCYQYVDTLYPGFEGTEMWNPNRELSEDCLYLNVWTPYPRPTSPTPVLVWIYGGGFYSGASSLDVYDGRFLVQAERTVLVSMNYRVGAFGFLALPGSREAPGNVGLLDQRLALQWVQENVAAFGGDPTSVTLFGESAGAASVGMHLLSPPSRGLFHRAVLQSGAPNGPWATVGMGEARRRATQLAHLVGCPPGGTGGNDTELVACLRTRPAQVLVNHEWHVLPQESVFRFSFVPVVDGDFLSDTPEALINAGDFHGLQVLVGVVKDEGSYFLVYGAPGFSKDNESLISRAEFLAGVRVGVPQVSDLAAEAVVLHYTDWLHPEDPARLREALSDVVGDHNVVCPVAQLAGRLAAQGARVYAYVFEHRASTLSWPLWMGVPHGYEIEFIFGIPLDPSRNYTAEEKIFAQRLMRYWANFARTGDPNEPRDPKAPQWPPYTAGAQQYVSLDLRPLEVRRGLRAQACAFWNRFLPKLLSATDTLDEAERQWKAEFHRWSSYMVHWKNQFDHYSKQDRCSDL

Going from `O=C(CCCCl)OC[C@@H]1CCCN2CCCC[C@H]12` [Compound 22] to `O=C(Nc1ccc(Cl)c(Cl)c1)OC[C@@H]1CCCN2CCCC[C@H]12` [Compound 41], the IC50 rises from 39.5 ± 7.2 µM to 99.4 ± 12.3 µM (2.5-fold).

same assay, conditions: Experimentally determined class, Active or NA

For `O=C(CCCCl)OC[C@@H]1CCCN2CCCC[C@H]12` [Compound 22], the “Observed class for AChE inhibitory activity” value was “Active”.
In the case of `CC1(C)CC(=O)c2c(C(=O)OC[C@@H]3CCCN4CCCC[C@H]34)coc2C1` [Compound 25], the “Observed class for AChE inhibitory activity” value is reported as “Active”.

same assay, conditions: N.A.: no activity was observed at the highest concentration tested (150 µM); 5–7 tested concentrations; read-out: AChE inhibitory activity IC50

`Nc1nc(SCc2cn(C[C@@H]3CCCN4CCCC[C@H]34)nn2)n[nH]1` [Compound 5, 3-((1-(((1S,9aR)-Octahydro-1H-quinolizine-1-yl)methyl)-1H-1,2,3-triazole-4-yl)methylthio)-1H-1,2,4-triazole-5-amine] and `O=Cc1ccc(OCc2cn(C[C@@H]3CCCN4CCCC[C@H]34)nn2)cc1` [Compound 17] are within 1.5-fold of each other in IC50: 101 ± 23.9 µM for the first, 68.1 ± 2.2 µM for the second.

First: CCOc1cc(C=O)ccc1OCc1cn(C[C@@H]2CCCN3CCCC[C@H]23)nn1 [Compound 7, 3-Ethoxy-4-((1-(((1S,9aR)-octahydro-1H-quinolizine-1-yl)methyl)-1H-1,2,3-triazole-4-yl)methoxy)benzaldehyde]
Second: COc1cc(-c2cn(C[C@@H]3CCCN4CCCC[C@H]34)nn2)ccc1OCc1ccccc1 [Compound 15, (1S,9aR)-1-((4-(4-(benzyloxy)-3-methoxyphenyl)-1H-1,2,3-triazol-1-yl)methyl)octahydro-2H-quinolizine]
The IC50 of the first is 10-fold higher: 73.4 ± 16.7 µM for the first, 7.2 µM for the second.

First: COc1cccc(-c2cn(C[C@@H]3CCCN4CCCC[C@H]34)nn2)c1 [Compound 13]
Second: COc1ccccc1/C=C/C(=O)OC[C@@H]1CCCN2CCCC[C@H]12 [Compound 43]
The IC50 of the first is 1.7-fold lower: 51.8 ± 9.2 µM for the first, 89.6 ± 7.7 µM for the second. The first is the more potent here.

Compared with `CCc1cc(C(=O)OCc2cn(C[C@@H]3CCCN4CCCC[C@H]34)nn2)c(O)c(C(C)(C)C)c1` [Compound 16], `Cc1cc(C)c(C(=O)OC[C@@H]2CCCN3CCCC[C@H]23)cc1C` [Compound 64] is 1.9-fold lower in IC50: 141 ± 15.3 µM for the first, 74.1 ± 6.8 µM for the second.

Going from `CC1(C)CC(=O)c2c(C(=O)OC[C@@H]3CCCN4CCCC[C@H]34)coc2C1` [Compound 25] to `O=C1CC(C(=O)OC[C@@H]2CCCN3CCCC[C@H]23)C2(CCCCC2)O1` (some centres unmarked) [Compound 44], the IC50 rises from 24.4 ± 3.4 µM to 68.9 ± 5.8 µM (2.8-fold). The first is the more potent here.

Compound `COc1cccc(/C=C/C(=O)OC[C@@H]2CCCN3CCCC[C@H]23)c1OC` [Compound 49] has an IC50 of 111 ± 12.5 µM.

same assay, conditions: double-reciprocal Lineweaver–Burk plot

For `COc1cc(-c2cn(C[C@@H]3CCCN4CCCC[C@H]34)nn2)ccc1OCc1ccccc1` [Compound 15, (1S,9aR)-1-((4-(4-(benzyloxy)-3-methoxyphenyl)-1H-1,2,3-triazol-1-yl)methyl)octahydro-2H-quinolizine], the “Mechanism of AChE inhibition (Lineweaver–Burk plot)” value was “mixed type of inhibition; also recorded: mixed-type mechanism”.

tested on: human THP-1 monocytic cells; assay: Cytotoxicity assay (CellTiter-Glo Luminescent Cell Viability Assay); format: cell-based; conditions: THP-1 cells, concentrations up to 50 μM, 24 h
Method: The cytotoxicity of the synthesized compounds was analyzed using a CellTiter-Glo Luminescent Cell Viability Assay Kit (Promega, Madison, WI, USA) according to the manufacturer’s protocol. Human THP-1 monocytic cells obtained from ATCC (Manassas, VA, USA) were cultured in RPMI 1640 medium (Mediatech Inc., Herndon, VA, USA) supplemented with 10% (v/v) FBS, 100 μg/mL streptomycin, and 100 U/mL penicillin. For the cytotoxicity assay, the cells were cultured at a density of 10^4 cells/well with different concentrations of the test compounds added ([…], 12.5, 25, 50 μM; final concentration of DMSO was 1%) for 24 h at 37 °C and 5% CO2. Following treatment, substrate was added to the cells, and the samples were analyzed with a Fluoroscan Ascent FL microplate reader.

For “[(1R,9aR)-octahydro-2H-quinolizin-1-yl]methane [Lupinine]”, the Cytotoxicity was “no cytotoxicity”.

target: T1, AChE; assay: not given; conditions: previously reported AChE inhibitors with a 4-benzyloxyphenyl moiety; ref [36],[37],[38]; read-out: AChE inhibitory activity IC50 of previously reported inhibitors; cited from earlier work

Compared with `Cn1c(/C=N/Nc2ccc(OCc3ccccc3)cc2)nc2ccccc21` [Compound A, (E)-2-((2-(4-(benzyloxy)phenyl)hydrazineylidene)methyl)-1-methylbenzimidazole], `COc1cc(/C=C/C(=O)NCCNc2cc(C)nc3ccccc23)ccc1OCc1ccccc1` [Compound C, (E)-3-(4-(benzyloxy)-3-methoxyphenyl)-N-(2-((2-methylquinolin-4-yl)amino)ethyl)acrylamide] is 20-fold lower in IC50: 11.8 µM for the first, 0.6 µM for the second.

In the case of `CCc1nnc(/N=C2\NC(=O)/C(=C\c3ccc(OCc4ccccc4)cc3)S2)s1` [Compound B, (E)-5-((E)-4-(benzyloxy)benzylidene)-2-((5-ethyl-1,3,4-thiadiazol-2-yl)imino)thiazolidin-4-one], the IC50 is given as 1.2 µM.
